Data: patent US12285459B2, “Saposin-A derived peptides and uses thereof” (CHILDREN'S MEDICAL CENTER CORPORATION, priority 2011, dated 2025)
Values joined by “and” are separate entries in the source; they are usually repeats but may differ in a detail not shown here. Identical values can stand only once. Values belong to the compound of their own block, whether it stands above or below them. Non-standard residues stand in square brackets, D forms with d. Residues, ends and D or L forms follow the SMILES beside them. No end group written: not given here. PEG2000 = polyethylene glycol 2000 attached at the N-terminus

What was measured:
Tsp-1 expression = conditions: previously shown; cited from earlier work
[1] = Peptide stability in mouse plasma, LC/MS; type: in vitro ADME, Swiss-Webster mice; conditions: for Concentration: 800 ng/mL, 37° C.; for Percent of Nominal: nominal 800 ng/mL
Description: (§1) human plasma (Lot #BCE012312PM1, K3 EDTA) was obtained from BioChemed Services (Winchester, VA) and was stored at −80° C. Young adult male Swiss-Webster mice were obtained from Taconic Farms, and were anesthetized with carbon dioxide, and exsanguinated by cardiac puncture. Blood was collected in to tubes containing K2 EDTA and cooled in ice. Plasma was prepared by centrifugation for 10 min at 3000 g and 4° C. Mouse plasma and blood was used on the day of harvest.
(§2) Quenched matrix (human and mouse plasma) samples were prepared from one volume of plasma precipitated with three volumes of 9:1 acetonitrile:water at 4° C. and centrifuged for 10 min at 3000 g and 4° C., and the supernatant was used to prepare standard curve samples. A stock solution of 20 mg/mL Ac-DWLP-amide (SEQ ID NO: 133, Ac=acetyl group, amide=amide group) and 20 mg/mL Ac-dWlP-amide (SEQ ID NO: 132, DWLP with D-amino acids D and L indicated by lower case) was prepared in distilled water. Each peptide stock (20 mg/mL) was used to prepare a dilution in phosphate buffered saline (PBS) at 1 mg/mL and those samples were further diluted in PBS to prepare 100 and 50 μg/mL solutions. The 100 and 50 μg/mL solutions were added to the quenched matrix supernatant at concentrations equivalent to 0, 300, 1000, 3000, and 10000 ng/mL pre-quench plasma concentrations to prepare standard curve samples. Triplicate aliquots (100 μL) of each standard curve sample were diluted in 100 μL water prior to analysis by LC/MS.
(§3) The two peptides were formulated in PBS (40 μg/mL), and incubated with human and mouse plasma at 37° C. in polypropylene tubes at a concentration of 800 ng/mL in duplicate. Incubation aliquots (100 μL) were removed at 0, 15, 30, and 60 min and immediately quenched by the addition of 300 μL 9:1 acetonitrile:water, vortexed and centrifuged for 10 min at 3000 g and 4° C. Then 100 μL of each supernatant was diluted with 100 μL PBS prior to analysis by LC/MS.
(§4) Processed standard curve and incubation samples were analyzed using the method described in Table 1. The concentration of peptide in plasma was determined by extrapolation from the standard curve.

[2] = Peptide stability in human plasma, LC/MS; type: in vitro ADME; conditions: for stability in human plasma / Concentration: 800 ng/mL, 37° C.; for stability in human plasma: 1 h; for Concentration / Percent of Nominal: human plasma; for Percent of Nominal: nominal 800 ng/mL
Description: as §1, §2, §3, §4

[3] = Peptide in plasma prepared from spiked mouse blood (partition into red blood cells), LC/MS; type: in vitro ADME, Swiss-Webster mice; conditions: for Concentration in Mouse Plasma Prepared From Mouse Blood Incubated with Each Peptide: 800 ng/mL in chilled mouse blood, plasma prepared after five minutes; for partition between plasma fraction and red blood cells: mouse blood, 800 ng/mL
Description: as §1
The two peptides were formulated as for plasma and introduced into mouse blood chilled in an ice bath at a concentration of 800 ng/mL in duplicate. Five minutes after adding to blood, plasma was prepared and duplicate aliquots were extracted (as above) and analyzed by LC/MS.
as §4

[4] = tested on: primary ovarian cancer cells; experiment: Intraperitoneal metastatic ovarian cancer model, bioluminescence; type: in vivo, CB-17 SCID mice; conditions: 2 mg/kg QOD from day 17
Description: For metastatic ovarian cancer cell injections, 5×10^6 viable primary ovarian cancer cells were injected into CB-17 SCID mice intraperitoneally in a volume of 0.1 ml. Tumor growth was monitored by live animal bioluminescence imaging (Xenogen) once per week. For in vivo determination of the metastatic burden, mice were anaesthetized and injected intraperitoneally with 75 mg/kg of D-luciferin (100 uL of 30 mg/mL in PBS). Metastatic growth was monitored over time using bioluminescence imaging performed with mice in a supine position 5 min after D-luciferin injection with a Xenogen IVIS system coupled to Living Image acquisition and analysis software (Xenogen). For BLI plots, photon flux was calculated for each mouse by using the same circular region of interest encompassing the abdomen of the mouse.
To determine whether DWLPK (SEQ ID NO: 4) could inhibit or regress existing ovarian metastases 5×10^6 primary ovarian cancer cells were injected intraperitoneally into SCID mice. After 17 days treatment was initiated with DWLPK (SEQ ID NO: 4) at a dose of 40 mg/kg QD, cisplatin at a dose of 2 mg/kg QOD, a combination of DWLPK (SEQ ID NO: 4) and cisplatin at the same doses, or PBS (control). It was observed that DWLPK (SEQ ID NO: 4) treatment completely regressed the metastases in 11/12 after 30 days and the regressed the metastases in the remaining mice by 99% (FIG. 20).

[5] = mouse, in vivo; cited from earlier work
[6] = tested on: Tsp-1 and p53 expression in lungs; experiment: Tumor-free mice given PC3M-LN4 conditioned media plus peptide; Tsp-1/p53 in tissue by western blot; type: in vivo, C57Bl6 mice; conditions: PC3M-LN4 CM plus 30 mg/kg pegylated peptide daily, 9 days; compared with PC3 conditioned media
Description: For tumor-free analysis C57Bl6 mice were treated with 200 uL of PC3M-LN4 media alone or in combination with peptides described above at dose of 30 mg/kg/day for 5 days. After treatment the animals were sacrificed and the lungs were harvested, lysed and analyzed for Tsp-1 and p53 protein levels as described previously (Kang et al).
It was sought to determine whether there was a smaller domain within saposin A that contained the p53/Tsp-1 stimulating activity. […] C57Bl6 mice (5-6 wks old) were injected daily with 300 uL of serum free DMEM, conditioned media (CM) from non-metastatic PC3 cells, CM from metastatic PC3M-LN4 cells and PC3M-LN4 CM plus 30 mg/kg of the pegylated 6 amino acid polypeptide (PEG2000-CDWLPK (SEQ ID NO: 46)) or 30 mg/kg of the pegylated 18 amino acid polypeptide (PEG2000-[…] (SEQ ID NO: 47)). After 9 days the mice were euthanized and the lungs and livers harvested and either fixed in formalin or lysed for Western blot analysis.
Finally, the effect of substituting D-amino acids at different residues of the 4-amino acid peptide was analyzed. By Western blot analysis it was observed that substituting the first and third or second and fourth residues, in combination, had no effect on the Tsp-1 stimulating activity in vitro. These peptides were then tested in the tumor-free animal model described above. The normal 4-amino acid peptide and the D-amino acid substituted peptides were injected in combination with conditioned media from PC3M-LN4 cells in adult C57Bl6 mice for 4 days at a dose of 10 or 30 mg/kg/day via i.p. injection. Mice were sacrificed 24 hours after the treatment on day 4. The lungs of these mice were harvested and analyzed the Tsp-1 expression by Western blot analysis. […]
Methods: 18 C57Bl6 mice were injected with Ac-dWlP-amide (SEQ ID NO: 132) at a dose of 30 mg/kg in a volume of 100 μL via intraperitoneal (i.p) injections in serum starved conditioned media from PC3M-LN4 prostate cancer cells. […] The relative intensity of the Tsp-1 (normalized to β-Actin) bands were determined using a Bio-Rad Chemi-Doc XRS system.

[7] = tested on: Tsp-1 and p53 expression in prostate fibroblasts; experiment: Tsp-1 and p53 expression in prostate fibroblasts treated with peptides, western blot; type: cell-based; conditions: western blot; 10 ug/mL, 16 hours
Description: Methods of assaying the effects of a polypeptide described herein on Tsp-1 and p53 expression are described herein. Briefly, a control Psap alongside a test polypeptide, is applied to a cell culture of prostate fibroblasts. The conditioned media from PC3M-LN4 (LN4) and PC3 cells are used as controls, with PC3 as positive/stimulating control and LN4 as negative/inhibiting controls. After a period of incubation (˜16 h), the cells are harvested, rinsed, and lysed. The lysates are analyzed for the level of Tsp-1 and p53 expression by western blot analyses, with β-actin as the internal lysate protein loading control.
These peptides were used to treat prostate and lung fibroblasts in vitro at a concentration of 10 ug/mL for 16 hours in ATCC-specified media supplemented with 0.1% FBS. Tsp-1 and p53 expression was analyzed by western blot as described previously (Kang, Y., et al., (2003) Cancer Cell 3:537-549.)

Compound: LEKTCDWLPKPNMSASCKEI
stimulating Tsp-1 expression in vitro and in vivo (Tsp-1 expression): capable of stimulating Tsp-1 expression in vitro and in vivo

Concentration ([1]; 0 min): 858 ng/mL and 859 ng/mL
Percent of Nominal ([1]; 0 min): 107.3% and 107.4%
Concentration ([1]; 15 min): 520 ng/mL and 462 ng/mL
Percent of Nominal ([1]; 15 min): 65.0% and 57.8%
Concentration ([1]; 30 min): 541 ng/mL and 496 ng/mL
Percent of Nominal ([1]; 30 min): 67.6% and 62.0%
Concentration ([1]; 60 min): 446 ng/mL and 469 ng/mL
Percent of Nominal ([1]; 60 min): 55.8% and 58.6%
stability in human plasma [2]: stable
Concentration ([2]; 0 min): 1050 ng/mL and 779 ng/mL
Percent of Nominal ([2]; 0 min): 131.3% and 97.4%
Concentration ([2]; 15 min): 941 ng/mL and 875 ng/mL
Percent of Nominal ([2]; 15 min): 117.6% and 109.4%
Concentration ([2]; 30 min): 863 ng/mL and 818 ng/mL
Percent of Nominal ([2]; 30 min): 107.9% and 102.3%
Concentration ([2]; 60 min): 1100 ng/mL and 901 ng/mL
Percent of Nominal ([2]; 60 min): 137.5% and 112.6%
Compound: CC(=O)N[C@H](CC(=O)O)C(=O)N[C@@H](Cc1c[nH]c2ccccc12)C(=O)N[C@H](CC(C)C)C(=O)N1CCC[C@H]1C(N)=O [Ac-dWlP-amide] (Ac-[dD]W[dL]P-NH2)
Concentration in Mouse Plasma Prepared From Mouse Blood Incubated with Each Peptide [3]: 1420 ng/mL and 1380 ng/mL and 1060 ng/mL and 1010 ng/mL
partition between plasma fraction and red blood cells [3]: remain primarily in the plasma fraction and do not partition into red blood cells

Compound: N.N.[Cl][Pt][Cl] [cisplatin, reference compound]
course of tumors under cisplatin treatment [4]: developed resistance to cisplatin treatment after 20 days and began growing again

Compound: CO[C@@H]1[C@H](OC(=O)NC(=O)CCl)CC[C@]2(CO2)[C@H]1[C@@]1(C)O[C@@H]1CC=C(C)C [TNP-470]
development of obesity in mice [5]: prevent diet-induced and genetic obesity
vascularity in the adipose tissue [5]: reduced vascularity in the adipose tissue

Compound: PEG2000-EKTCDWLPKPNMSASCKE (cysteine pairing not given here)
stimulating the expression of Tsp-1 in the lung and liver [6]: as, or more, effective than PC3 conditioned media

Compound: CDWLPKPNMSASC (also: cyclized, mode not given here) [13-amino acid cyclized peptide spanning residues 35-47 of saposin A]
stimulating Tsp-1 expression in vitro and in vivo (Tsp-1 expression): capable of stimulating Tsp-1 expression in vitro and in vivo
stimulation of the expression of p53 and Tsp-1 in prostate fibroblasts [7]: able to stimulate the expression of p53 and Tsp-1

Concentration ([1]; 0 min): 869 ng/mL and 955 ng/mL
Percent of Nominal ([1]; 0 min): 108.6% and 119.4%
Concentration ([1]; 15 min): 669 ng/mL and 605 ng/mL
Percent of Nominal ([1]; 15 min): 83.6% and 75.6%
Concentration ([1]; 30 min): 428 ng/mL and 400 ng/mL
Percent of Nominal ([1]; 30 min): 53.5% and 50.0%
Concentration ([1]; 60 min): 398 ng/mL and 463 ng/mL
Percent of Nominal ([1]; 60 min): 49.8% and 57.9%
stability in human plasma [2]: good stability
Concentration ([2]; 0 min): 649 ng/mL and 784 ng/mL
Percent of Nominal ([2]; 0 min): 81.1% and 98.0%
Concentration ([2]; 15 min): 760 ng/mL and 817 ng/mL
Percent of Nominal ([2]; 15 min): 95.0% and 102.1%
Concentration ([2]; 30 min): 538 ng/mL and 607 ng/mL
Percent of Nominal ([2]; 30 min): 67.3% and 75.9%
Concentration ([2]; 60 min): 634 ng/mL and 616 ng/mL
Percent of Nominal ([2]; 60 min): 79.3% and 77.0%
Compound: CC(=O)N[C@@H](CC(=O)O)C(=O)N[C@@H](Cc1c[nH]c2ccccc12)C(=O)N[C@@H](CC(C)C)C(=O)N1CCC[C@H]1C(N)=O [Ac-DWLP-amide] (Ac-DWLP-NH2)
Concentration in Mouse Plasma Prepared From Mouse Blood Incubated with Each Peptide [3]: 1580 ng/mL and 1510 ng/mL and 1530 ng/mL and 1610 ng/mL
partition between plasma fraction and red blood cells [3]: remain primarily in the plasma fraction and do not partition into red blood cells

Compound: PEG2000-CDWLPK
stimulating the expression of Tsp-1 in the lung and liver [6]: as, or more, effective than PC3 conditioned media
